Laboratory results taken from patent US12274703B2, “Compositions and methods of treatment for neurological disorders comprising a dementia” (Gliapharm SA, priority 2017, dated 2025).
pEC50, pIC50: −log10 of the molar value. Like-named read-outs stand apart in the source and are kept apart here.

Columns and labels:
[1] = tested on: astrocytes; assay: Extracellular lactate quantification; assay type: cell-based, mouse; conditions: for Score_LACTATE: Appendix I, secondary screening, dosage of extracellular lactate; for pEC50: Mus musculus, Astrocyte
In short: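 Primary cortical astrocytes from 1–2-day-old OF1 mouse pups, used at DIV14–17, stimulated 90 min at 37 °C in D5030 with 5 mM glucose, compounds 0–100 μM. Extracellular L-lactate measured enzymatically (LDH/NAD, pH 10, 1 h 37 °C) by NADH fluorescence (ex 340/em 450) against L-lactate standard curve.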

[2] = tested on: astrocytes; assay: MTT viability assay; assay type: cell-based; conditions: Mus musculus, Astrocyte; CDC54K hits; cellular toxicity, 0-200 uM
Method: (§1) Primary cultures of cerebrocortical astrocytes were obtained from 1-2-day-old OF1 mouse pups (Charles River Laboratories). Briefly, cortices were isolated and minced in small pieces under a dissecting microscope. The cells were incubated for 30 min at 37° C. in a solution containing 20 U/ml of papain enzyme (Worthington Biochemical), L-cysteine 1 mM (Sigma), and 10 kU/ml DNase I (Worthington Biochemical) for an enzymatic dissociation. Papain activity was stopped by the addition of fetal calf serum (FCS) to the solution, and a single-cell suspension was then obtained by mechanical dissociation, which consisted in cells trituration in a DMEM (D7777, Sigma-Aldrich) medium (supplemented with 44 mm NaHCO3, and 10 ml/L antibiotic/antimycotic solution) containing 10% FCS. The cells were seeded at an average density of 6×10^4 cells/cm^2 in poly-D-lysine-coated 96, 12 or 6-well culture plates, depending on their use, and incubated at 37° C. in a humidified atmosphere containing 5% CO2/95% air. Culture medium was renewed twice per week. Cells were stimulated and harvested between DIV14 and DIV17, when confluence and cell growth were optimal.
For cell toxicity determination, astrocytes in 96-well plates were stimulated 24 h (37° C. 5% CO2/95% air) with a gradient ranging from 0.1 to 200 μM of tested compounds. After stimulation, 5 mg/ml thiazol blue tetrazolium bromide (MTT, Sigma-Aldrich) in warm D5030 complete medium was added to each well, and cells were incubated for 4 h at 37° C. (5% CO2). The medium was then removed by aspiration, and the reaction was stopped by the addition of 50 μl DMSO per well.
The amount of reduced MTT (formazan) solubilized in DMSO was then determined spectrophotometrically using absorbance at 570 nm (Safire 2; Tecan).
MTT cellular viability assay was performed on astrocytes exposed to molecules from the Prestwick library (Prestwick hits; concentrations ranging from 0 uM to 200 uM).
MTT cellular viability assay was performed on astrocytes exposed to CDC54K hits (concentrations ranging from 0 uM to 200 uM).

[3] = tested on: astrocytes; assay: Production of H2O2 (mitochondrial activity); assay type: cell-based; conditions: Mus musculus, Astrocyte, 1.5 h; CDC54K hits; 0-200 uM, 90 min
Method: as §1
Hydrogene peroxide (H2O2) released in the supernatant is detected enzymatically with Amplex red (Zhou, Diwu et al. 1997). Oxidation of Amplex red is catalysed by the horseradish peroxidase in presence of H2O2 into highly fluorescent resorufin. Fluorescence measure is read at 545 nm extinction, 590 nm emission. The amount of H2O2 was expressed relatively to the proteins content extracted from the cells in culture. […]
Mitochondrial respiration in astrocytes was measured through production of H2O2 at 90 min after stimulation with CDC54K hits (ranging from 0 to 200 uM).

[4] = tested on: primary astrocytes; assay: High throughput screening for lactate secretion: acidification of extracellular medium (SNARF5); assay type: cell-based, mouse; parameters: key to Score / HTS Score (lactate) / HTS Score (SNARF5) / Score_SNARF: fraction of positive control activity (positive control = 100%); conditions: for Score_SNARF: primary screening confirmation (SNARF5); for Score / HTS Score (SNARF5) / Emax at 10 µM: 10 uM, 90 min; for Emax at 10 µM: Mus musculus, Astrocyte, 1.5 h
In short: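 Mouse cortical astrocytes (DIV17) stimulated 90 min at 10 uM compound (1% DMSO) in low-bicarbonate DMEM, 5 mM glucose, with SNARF-5F; extracellular acidification read as 630/580 nm emission ratio (exc 480 nm). Duplicates; score as % of CCCP 2 uM control, hits >3× summed SD above DMSO.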

[5] = 1.5 h, CDC54K hits, 0-100 uM, 90 min, read-out: Lactate EC50
[6] = Appendix I, primary screening, relative to positive control
[7] = CDC54K hits, relative to positive control CCCP 2 uM
[8] = Appendix I, primary screening, relative to positive control, read-out: Score
[9] = CDC54K hits, relative to positive control CCCP 2 uM, read-out: HTS Score (SNARF5)

pEC50 [1, 5] | pIC50 [3] | pEC50 ([1]; Appendix II, lactate secretion, read-out: EC50) | SMILES | Score_LACTATE [1] | pIC50 [2] | Score_SNARF ([4]; Appendix I) | Score [4, 6] | HTS Score (SNARF5) [4, 7] | Emax at 10 µM [4, 8] [%] | Emax at 10 µM [4, 9] [%] | Score Lact. ([1]; Appendix II)
6.30 | < 3.70 |  | Cc1ccccc1NC(=O)C1CCCN(c2ncnc3oc(C)c(C)c23)C1 (stereo not shown) [F228-0422] | 0.6364 | < 3.70 | 0.7702 | 1.057 | 1.058 |  |  | 
4.91 | < 3.70 |  | O=S(=O)(Nc1cc(F)cc(F)c1)c1ccc2ccccc2c1 [T5884038] |  | 4.15 |  |  |  | 72.1 | 72.1 | 
5.10 | < 3.70 |  | CCc1nc(-c2csc(S(=O)(=O)NCc3ccc4c(c3)OCO4)c2)no1 [L287-0468] | 0.6179 | < 3.70 | 0.6592 | 0.5971 | 0.597 |  |  | 
5.10 | < 3.70 |  | O=C1CCCN1c1ccc(S(=O)(=O)Nc2cccc(/C=C/c3ccccn3)c2)cc1 [T5644989] | 0.7859 | < 3.70 | 0.8385 | 0.6796 | 0.68 |  |  | 
5.52 | < 3.70 |  | c1ccc2c(c1)CCN(c1ncnc3sccc13)C2 [T0517-8250] |  | 3.86 |  |  |  | 95.7 | 95.7 | 
5.06 | < 3.70 |  | CC(=O)N1CCc2sc(S(=O)(=O)N3CCN(c4ccccc4C)CC3)cc2C1 [P025-0159] | 0.9232 | < 3.70 | 0.8007 | 0.9535 | 0.953 |  |  | 
4.94 | < 3.70 |  | Cc1nc2ccc(NS(=O)(=O)c3cccc(F)c3)cc2s1 [T6937001] | 0.9088 | < 3.70 | 0.8557 | 0.8094 | 0.809 |  |  | 
4.60 | 4.31 |  | CCn1nccc1-c1csc(S(=O)(=O)Nc2ccc(Cl)cc2F)c1 [L924-1031] | 1.632 | < 3.70 | 0.8713 | 0.9286 | 0.929 |  |  | 
5.74 | < 3.70 |  | COc1ccccc1[N+]1=C2CCCCCN2C(O)(c2ccc(C)cc2)C1 (stereo not shown) [K404-0834] |  | 3.82 |  |  |  | 112 | 112 | 
4.96 | < 3.70 |  | COc1cc(C)c(Cl)cc1S(=O)(=O)NCc1ccncc1 [T5580243] | 0.7229 | < 3.70 | 0.8565 | 0.8528 | 0.853 |  |  | 
4.94 | < 3.70 | 5.17 | N#Cc1ccc(C(=O)N2CCC(Nc3ncnc4c3CCC4)C2)cc1 (stereo not shown) [T636-2387] |  | < 3.70 |  |  | 0.445 | 44.5 |  | 0.30
5.51 | 3.73 |  | COc1ccc(Nc2nc(N3CCOCC3)c3ccccc3n2)cc1.Cl [T0508-5190] |  | 4.12 |  |  |  | 45.9 | 45.9 | 
